Results published in patent publication US20220313782A1, “METHODS AND COMPOSITIONS INVOLVING TERT ACTIVATING THERAPIES” (BOARD OF REGENTS, THE UNIVERSITY OF TEXAS SYSTEM, priority 2019, published 2022).

Tests used:
Tert gene expression = assay: Tert mRNA levels in cortex and hippocampus of AD mice treated with histone methyltransferase inhibitors; format: in vivo, mouse; details: cortex and hippocampus of AD mice (5xFAD), FIG. 1I
From the text: Tert mRNA levels in the cortex of 3xTg-AD and wildtype control (B6129SF2/J) mice (n=4; 3-month-old). (B) Tert mRNA levels in the hippocampus of 5xFAD and wildtype littermate control mice (n=4; 2˜3-month-old). (C) Tert mRNA levels in primary cortical and hippocampal neurons isolated from 3xTg-AD and control mice at DIV 14 (n=3). (D) Tert mRNA levels in primary cortical and hippocampal neurons isolated from 5xFAD and control mice at DIV 14 (n=3). (E) Telomerase activity in hippocampal neurons isolated from 5xFAD and control mice (n=4; 2˜3-month-old). (F) Representative view of H3K9me3 repressive histone mark occupancy in Tert gene of 5xFAD and control mouse primary neurons at DIV 14. […]
Focusing in particular on the neuronal population, the inventors isolated and cultured primary cortical and hippocampal neurons from E18.5-E19.5 AD mouse brains, and Tert mRNA levels were examined at 14 Days in vitro (DIV), by which time the synaptic network is mature. […] To investigate whether reversible H3K9 methylation is involved in the repression of Tert, the inventors assessed the impact of histone methyltransferase inhibitors chaetocin and BIX-01294, the non-selective cofactor-competitive inhibitor and the selective substrate-competitive inhibitor, respectively, in the AD mouse model (Greiner et al., Nat Chem Biol, 2005; Kubicek et al., Mol Cell, 2007; Yuan et al., ACS Chem Biol, 2012). […]

H3K9 methylation marks = details: peripheral administration; cited from earlier work

## COc1cc2nc(N3CCCN(C)CC3)nc(NC3CCN(Cc4ccccc4)CC3)c2cc1OC [BIX-01294]
Tert gene expression
  Tert gene expression (Tert mRNA levels): de-repression of Tert gene expression
H3K9 methylation marks
  H3K9 methylation marks in the central nervous system: reduce H3K9 methylation marks
